This is an account of results in patent publication US20110212955A1, “ROSAMINE DERIVATIVES AS AGENTS FOR THE TREATMENT OF CANCER” (CANCER RESEARCH INITIATIVES FOUNDATION, priority 2008, published 2011).

Values joined by “and” are separate entries in the source; they are usually repeats but may differ in a detail not shown here. Equal values may be shown once. Read-outs that look alike come from different tables or passages of the source. Some results are limits rather than exact numbers.

For data set [1], the system named is whole animal tumor models. The settings on record: a number of whole animal tumor models; cited from earlier work.
For data set [2], the system named is HL60. Briefly: In vitro antiproliferative MTT assay in HL60, 24 h endpoint. It is filed as cell-based, human. The settings on record: triplicate determination; for IC50: read-out: IC50 (μM) ± S.D. in HL60. As for the experimental part:
In vitro proliferation assay. Approximately 3 000-5 000 (15 000 cells for HL-60) exponentially growing cells were seeded in each well of a 96-well plate with 50 μl of medium and were allowed to adhere overnight. Cells were then treated with each compound at concentrations ranging from 0.01-10 μM giving the final volume of 100 μl in each well. At the end of incubation period, 15 μl of MTT solution (5.0 mg/ml in PBS) was added and incubated for an additional 4 h. Medium and excessive MTT were aspirated and formazan formed was solubilized with 100 μl of DMSO. Absorbance, as a measurement of viable cell number was read at 570 nm with ThermoLabsystems OpsysMR microplate spectrometer. At least three independent experiments were performed and results are presented as an average.
(In general: Tetrazolium dyes change colour on reduction, which living cells bring about.)

Data set [3] has as its system HCT116. Briefly: In vitro anti-proliferative MTT assay, 48 h, HCT116. In kind it is cell-based, human. The settings on record: HCT116, colon, 48 h post-treatment, read-out: IC50 (μM) ± S.D., HCT116. An excerpt:
(§1) In vitro proliferation assay.

Data set [4] concerns MCF-7. In words: In vitro anti-proliferative MTT assay, 48 h, MCF-7. It is filed as cell-based, human. The settings on record: MCF-7, breast, 48 h post-treatment, read-out: IC50 (μM) ± S.D., MCF-7.
From the text: as §1

The test system of data set [5] is HSC2. In words: In vitro anti-proliferative MTT assay, 48 h, HSC2. It is filed as cell-based, human. The settings on record: HSC2, oral, 48 h post-treatment, read-out: IC50 (μM) ± S.D., HSC2.
From the text: as §1

In data set [6] the test system is OKF6. In words: In vitro anti-proliferative MTT assay, 48 h, OKF6 immortalized normal oral keratinocytes. In kind it is cell-based. The settings on record: immortalized normal human epithelial cells, read-out: IC50 (μM) ± S.D., OKF6.
From the text: as §1

Data set [7] concerns HK1. Briefly: In vitro anti-proliferative MTT assay, 48 h, HK1. In kind it is cell-based, human. The settings on record: HK1, nasopharyngeal, 48 h post-treatment, read-out: IC50 (μM) ± S.D., HK1.
From the text: as §1

The subject of data set [8] is NP69. In words: In vitro anti-proliferative MTT assay, 48 h, NP69 immortalized normal nasopharyngeal epithelial cells. In kind it is cell-based. The settings on record: immortalized normal human epithelial cells, read-out: IC50 (μM) ± S.D., NP69.
From the text: as §1

Data set [9] in a line: Fluorescence quantum yield. The settings on record: for fluorescence quantum yield: in ethanol, unpublished data. It is filed as physicochemical. As for the experimental part:
Steady-state fluorescence spectroscopic studies were performed on a Cary Eclipse fluorometer. The slit width was 5 nm for both excitation and emission. The relative quantum yields of the samples were obtained by comparing the area under the corrected emission spectrum of the test sample with that of a standard. The quantum efficiencies of fluorescence were obtained from multiple measurements (N=3) with the following equation:
Φx=Φst(Ix/Ist)(Ast/Ax)(ηx^2/ηst^2)
Where Φst is the reported quantum yield of the standard, I is the area under the emission spectra, A is the absorption at the excitation wavelength and η is the refractive index of the solvent used, measured on a pocket refractometer from ATAGO. X subscript denotes test sample, and st denotes standard.

Data set [10] deals with HSC2 cells. The settings on record: 100 nM. As for the experimental part: Cellular localization. HSC2 cells grown on round glass coverslips in 12-well plate were co-incubated with 100 nM of compound 11 together with organelle-specific fluorescence probes. The endoplasmic reticulum was labeled with 100 nM of ER-Tracker Blue-White DPX, the lysosomes were stained with 500 nM of LysoTracker Blue DND-22, and the mitochrondria was tracked with 100 nM of Rh123 respectively for 15-30 min of incubation at room temperature. After incubation, cells were gently rinsed in PBS to remove free dyes, and the stained cells were observed using Olympus DSU spinning disk confocal microscope configured with a PlanApo x63 oil objective and iXon EM+(Andor Technology) digital camera. Fluorescent images of X-Y sections at 0.2 μm were collected sequentially using Olympus Cell^R software. Organelle-specific fluorescence probes were respectively excited at 365 nm to illuminate ER-tracker and LysoTracker, at 494 nm for Rh123 and at 575 nm for compound 11.

The test system of data set [11] is HSC2 cells. The settings on record: 0.5 μM. How it is done: AnnexinV-FITC apoptosis analysis. HSC2 cells grown in 60-mm dishes at 50% confluency were treated with 0.5 μM of compound 11. At various treatment intervals, floating cells in the medium were pooled together with the adherent cells after trypsinization and were washed twice with cold PBS. The cells were resuspended with 1× binding buffer at 1×10^6 cells/ml. A 100 μl of cell suspension was transferred to a 5 ml tube followed by […] of AnnexinV-FITC and […] of propidium iodide (200 μg/ml in PBS). The cells were gently mixed and incubated for 15 min at RT in the dark before analysed on a FACSCalibur flow cytometer with 488 nm argon laser. The fluorescence data of 10 000 cells were collected with the FL1 detector with 530/30 band pass filter to collect Annexin-FITC fluorescence, and the FL3 detector with a 630 nm long pass filter to collect propidium iodide fluorescence.

Data set [12] deals with HSC2 cells. The settings on record: IC50 concentration (0.25 μM), 4 h to 48 h. As for the experimental part:
Cell cycle analysis. HSC2 cells were treated and collected as above. Cells were then fixed in 70% ice-cold ethanol (v/v in PBS) overnight at 4° C. Following fixation, the cells were washed twice in cold PBS. The pellet was then resuspended in PBS solution containing 20 μg/ml RNase A and 1 μM SYTOX Green for 30 min. The cells were analysed on a FACSCalibur flow cytometer with 488 nm argon laser. The DNA-SYTOX Green fluorescence of 10 000 cells were collected with the FL1 detector with 530/30 band pass filter.

The subject of data set [13] is transformed mouse mammary epithelial cells. The settings on record: cells with increased mitochondrial transmembrane potential; cited from earlier work.
Data set [14] relates to A6-derived subcutaneous tumors. The settings on record: nude mice, intraperitoneal injection; cited from earlier work.
In data set [15] the test system is cancer cells. The settings on record: cited from earlier work.
The subject of data set [16] is carcinoma. The settings on record: cited from earlier work.
Data set [17] deals with carcinoma cell types. The settings on record: in vitro; cited from earlier work.
In data set [18] the test system is non-tumorigenic epithelial cell types. The settings on record: in vitro, similar concentrations; cited from earlier work.
[19] abbreviates: Homo sapiens, HL-60, HL60, 24 h post-treatment.

As to “3-ethyl-3′-methyl-thiatelluracarbocyanine iodide”, the “activity in whole animal tumor models” value in [1] is “anti-carcinoma activity”.
The term IC50 denotes the concentration that gives 50% inhibition. As to `Cc1ccccc1-c1c2ccc(=[N+]3CCCC3)cc-2oc2cc(N3CCCC3)ccc12` [Compound 1], the IC50 in data set [2] (HL60, 24 h post-treatment) is 0.72 ± 0.09 µM.
Same read-out and setting: the value for `Cc1ccccc1-c1c2ccc(=[N+]3CCCCC3)cc-2oc2cc(N3CCCCC3)ccc12` [Compound 2] was 0.76 ± 0.03 µM.
As to `Cc1ccccc1-c1c2ccc(=[N+]3CCOCC3)cc-2oc2cc(N3CCCCC3)ccc12.[Cl-]` [Compound 3], in data set [2] (HL60, 24 h post-treatment), the “IC50 (μM) ± S.D. in HL60” value is “lowest IC50 value among compounds 1-6” and the half-maximal inhibitory concentration (IC50) is 0.35 ± 0.01 µM.
The matching figures for `Cc1ccccc1-c1c2ccc(=[N+]3CCOCC3)cc-2oc2cc(N3CCOCC3)ccc12.[Cl-]` [Compound 4]: “moderate to poor activity” and 8.27 µM.
For `Cc1ccccc1-c1c2ccc(=[N+]3CCN(C(=O)OC(C)(C)C)CC3)cc-2oc2cc(N3CCN(C(=O)OC(C)(C)C)CC3)ccc12` [Compound 5], the 50% inhibitory concentration (IC50) in data set [2] (HL60, 24 h post-treatment) is 0.62 ± 0.07 µM.
As to `Cc1ccccc1-c1c2ccc(=[N+]3CCNCC3)cc-2oc2cc(N3CCNCC3)ccc12.[Cl-]` [Compound 6], in [2] (HL60, 24 h post-treatment), the “IC50 (μM) ± S.D. in HL60” value was “moderate to poor activity”; the IC50 is 36.7 µM and 53.3 µM.
As to `Cc1c2ccc(=[N+]3CCCCC3)cc-2oc2cc(N3CCCCC3)ccc12.[Cl-]` [Compound 7], in data set [2] (HL60, 24 h post-treatment), the “IC50 (μM) ± S.D. in HL60” value is on record as “moderate to poor activity” and the IC50 was 3.86 ± 1.46 µM.
`c1ccc(Cc2c3ccc(=[N+]4CCCCC4)cc-3oc3cc(N4CCCCC4)ccc23)cc1` [Compound 8]: the IC50 in data set [2] (HL60, 24 h post-treatment) was 0.82 ± 0.04 µM.
Turning to `[Cl-].c1csc(-c2c3ccc(=[N+]4CCCCC4)cc-3oc3cc(N4CCCCC4)ccc23)c1` [Compound 10], the IC50 in data set [2] (HL60, 24 h post-treatment) is 0.1 µM; in data set [3], 0.15 ± 0.06 µM; in [4], 0.27 ± 0.16 µM; in data set [5], 0.12 ± 0.09 µM; in data set [6], 0.25 ± 0.1 µM; in [7], 0.09 ± 0.01 µM. Also, the half-inhibitory concentration (IC50) in data set [8] is 0.33 ± 0.2 µM. This compound also had a fluorescence quantum yield in data set [9] of 0.10 ± 0.01.
Take `Ic1ccc(-c2c3ccc(=[N+]4CCCCC4)cc-3oc3cc(N4CCCCC4)ccc23)cc1.[Cl-]` [Compound 11]: the IC50 in [2] (HL60, 24 h post-treatment) amounted to 0.09 µM; in data set [3] it was 0.39 ± 0.11 µM; in data set [4], 0.39 ± 0.22 µM; in data set [5] it was 0.25 ± 0.12 µM; in [6], 0.41 ± 0.07 µM; in data set [7], 0.42 ± 0.06 µM. In addition, the IC50 in data set [8] came to 0.51 ± 0.16 µM. Moreover, the fluorescence quantum yield in data set [9] was 0.28 ± 0.01. Moreover, the “presence of compound in the nucleus” value in data set [10] is reported as “remained free of compound 11”. For the same compound, the “staining of the cytoplasmic or nuclear membrane” value in data set [10] is “not detected”. Besides, the “co-localisation with ER and lysosomes” value in data set [10] (ER-Tracker and LysoTracker) is “only partial co-localisation”. Also, the “cells staining positive for annexin V” value in [11] (0 h or 4 h time-points) was “less than 10%”; in data set [11] (8 h of compound incubation) it was 16%. In addition, the “proportion of cells undergoing apoptosis” value in data set [11] (within 24 h) stood at 58%. Also, the cell cycle profile entry in data set [12] is listed as “remained unchanged”.
On to `COc1ccc(-c2c3ccc(=[N+]4CCCCC4)cc-3oc3cc(N4CCCCC4)ccc23)cc1` [Compound 12], for which the IC50 in [2] (HL60, 24 h post-treatment) was found to be 0.66 ± 0.17 µM.
On to `COc1ccccc1-c1c2ccc(=[N+]3CCCCC3)cc-2oc2cc(N3CCCCC3)ccc12` [Compound 13], for which the IC50 in data set [2] (HL60, 24 h post-treatment) turned out to be 0.95 ± 0.01 µM.
The same measure, in the same setting: then `COc1cccc(OC)c1-c1c2ccc(=[N+]3CCCCC3)cc-2oc2cc(N3CCCCC3)ccc12` [Compound 14], with 0.25 ± 0.22 µM.
With `Oc1cccc(O)c1-c1c2ccc(=[N+]3CCCCC3)cc-2oc2cc(N3CCCCC3)ccc12` [Compound 15], the “IC50 (μM) ± S.D. in HL60” value in [2] (HL60, 24 h post-treatment) is given as “moderate to poor activity”. Also, in [2] (setting [19]), the IC50 was 2.91 ± 1.86 µM.
Consider `O=C(O)COc1cccc(OCC(=O)O)c1-c1c2ccc(=[N+]3CCCCC3)cc-2oc2cc(N3CCCCC3)ccc12` [Compound 16], for which, in data set [2] (HL60, 24 h post-treatment), the “IC50 (μM) ± S.D. in HL60” value is on record as “moderate to poor activity”. The IC50 in data set [2] (setting [19]) is above 100 µM. Also, the quantum yield in data set [9] (in phosphate buffer) is 0.13.
As to `C[n+]1ccc(/C=C/c2c[nH]c3ccccc23)cc1.[I-]` [Compound F16], the “proliferation of transformed mouse mammary epithelial cells” value in [13] is listed as “selectively inhibited proliferation”. In addition, the “growth of A6-derived subcutaneous tumors” value in data set [14] was “retard the growth”.
Regarding `CCn1c(=O)/c(=C2\Sc3ccccc3N2C)s/c1=C\c1cccc[n+]1CC.[Cl-]` [MKT-077], in data set [15], the “growth of cancer cells in vitro and in vivo” value is reported as “significantly inhibit growth”. Further, the “accumulation in tumor cell mitochondria” value in data set [16] (clinical study) is listed as “preferentially accumulated in tumor cell mitochondria”. Also, in [16] (phase II, approved dosage and drug regimen), the clinical efficacy entry is “lack of efficacy”.
Take `COC(=O)c1ccccc1-c1c2ccc(=N)cc-2oc2cc(N)ccc12.Cl` [Rh123, rhodamine 123, reference compound]: the IC50 amounted to 7.92 ± 0.95 µM in data set [3]; 5.61 ± 0.61 µM in data set [4]; 4.48 ± 2.23 µM in [5]; 9.84 ± 3.46 µM in data set [6]; 5.86 ± 0.15 µM in data set [7]; 6.28 ± 0.21 µM in [8]. In addition, the “carcinoma cell types in which cell death was markedly induced” value in data set [17] is reported as 9/9. The “non-tumorigenic epithelial cell types that remained unaffected” value in data set [18] was 6/6.
In the case of `Cc1cc(N)c2ccccc2[n+]1CCCCCCCCCC[n+]1c(C)cc(N)c2ccccc21` [dequalinium chloride], the “activity in whole animal tumor models” value in data set [1] is reported as “anti-carcinoma activity”.
